# Strand notation (5' to 3'): a small letter for the sugar, then the base; units joined by * are phosphorothioate-linked, units joined directly phosphodiester-linked; [ ] holds rarer units or linkages, { } end groups; capitals alone tell only the bases. k = constrained ethyl (cEt); [5mC] = 5-methylcytosine; d = 2'-deoxy (DNA)
# Tested on: Yap1 mRNA
# Assay: Antisense inhibition of human Yap1 in A-431 cells by cEt gapmers, single dose (Example 2, RTS4814)
# Assay type: cell-based
# Conditions: A-431 cells, 5,000 cells per well, free uptake, 2,000 nM modified oligonucleotide, approx. 48 hours, RTS4814, normalized to RIBOGREEN; Table 4; asterisk (*) = targets amplicon region of primer probe set
# Summary of the method: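 Single-dose knockdown screen of 3-10-3 cEt phosphorothioate gapmers at 2,000 nM added by free uptake to A-431 cells. After roughly 48 h, RNA was isolated and Yap1 transcript measured by RT-qPCR, with results given as % UTC.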
row,Substance,YAP1 (% UTC)
1,716349 (kA*k[5mC]*kT*dT*dT*dT*dT*d[5mC]*d[5mC]*d[5mC]*dT*d[5mC]*d[5mC]*kA*kA*k[5mC]; antisense) [Compound 716349],78
2,716499 (kT*kT*kT*dT*dG*d[5mC]*d[5mC]*d[5mC]*dT*d[5mC]*d[5mC]*dT*d[5mC]*k[5mC]*kA*kA; antisense) [Compound 716499],102
3,716421 (kT*kA*kT*dT*dA*dG*d[5mC]*d[5mC]*dT*dG*dA*dA*dA*kA*k[5mC]*kT; antisense) [Compound 716421],86

# Same assay, conditions: Table 5; A-431 cells, 5,000 cells per well, free uptake, 2,000 nM modified oligonucleotide, approx. 48 hours; RTS4814; normalized to RIBOGREEN; Yap1 mRNA relative to untreated control cells
row,Substance,YAP1 (% UTC)
1,716569 (k[5mC]*kT*k[5mC]*d[5mC]*dT*dT*dA*dA*d[5mC]*d[5mC]*d[5mC]*dG*dG*kG*kT*kT; antisense) [Compound 716569],115
2,716485 (kA*k[5mC]*kT*dA*d[5mC]*d[5mC]*dA*dA*dT*dA*dT*dA*d[5mC]*kA*kT*kT; antisense) [Compound 716485],84

# Same assay, conditions: Table 6; A-431 cells, 5,000 cells per well, free uptake, 2,000 nM modified oligonucleotide, approx. 48 hours; RTS4814; normalized to RIBOGREEN; Yap1 mRNA relative to untreated control cells
row,Substance,YAP1 (% UTC)
1,716486 (kA*kT*k[5mC]*dA*dT*dG*dA*dT*dT*dA*dT*d[5mC]*dT*k[5mC]*kT*kA; antisense) [Compound 716486],68

# Same assay, conditions: Table 18; A-431 cells, 5,000 cells per well, free uptake, 2,000 nM modified oligonucleotide, approx. 48 hours; RTS4814; normalized to RIBOGREEN; Yap1 mRNA as percent of untreated control
row,Substance,YAP1 (% UTC)
1,1076196 (kT*kA*kT*d[5mC]*dA*dA*dG*dG*dG*dA*dA*dT*dT*kA*kT*kT; antisense) [Compound 1076196],113
2,1074404 (antisense kG*kG*k[5mC]*dT*dT*dA*dT*dG*dG*dA*dA*dA*dT*kT*kT*k[5mC]) [Compound 1074404],16
3,1075332 (kA*kG*k[5mC]*dG*dG*dG*dT*dT*dT*dA*dG*dA*dA*kT*kG*k[5mC]; antisense) [Compound 1075332],66
4,1074500 (k[5mC]*kT*kA*d[5mC]*dA*dA*dT*dA*dA*d[5mC]*d[5mC]*dA*dT*k[5mC]*k[5mC]*k[5mC]; antisense) [Compound 1074500],10
5,1074564 (antisense k[5mC]*kT*kG*dA*dA*dT*dT*d[5mC]*d[5mC]*dA*dA*dT*d[5mC]*kG*kA*kG) [Compound 1074564],4
6,1074308 (antisense kG*k[5mC]*kA*dT*dT*dG*d[5mC]*d[5mC]*dT*dG*dT*dG*dG*k[5mC]*k[5mC]*kT) [Compound 1074308],132
7,1076516 (antisense k[5mC]*kA*kT*dA*dA*dA*d[5mC]*dA*dT*dG*dA*dG*dT*kG*kG*kT) [Compound 1076516],8

# Same assay, conditions: Table 19; A-431 cells, 5,000 cells per well, free uptake, 2,000 nM modified oligonucleotide, approx. 48 hours; RTS4814; normalized to RIBOGREEN; Yap1 mRNA as percent of untreated control
row,Substance,YAP1 (% UTC)
1,1074565 (antisense kA*k[5mC]*kT*dG*dA*dA*dT*dT*d[5mC]*d[5mC]*dA*dA*dT*k[5mC]*kG*kA) [Compound 1074565],5
2,1074117 (antisense kG*k[5mC]*kG*d[5mC]*d[5mC]*dT*dG*dA*dG*dA*dA*d[5mC]*dT*kT*kT*kT) [Compound 1074117],87
3,1074149 (antisense kG*k[5mC]*k[5mC]*dG*dA*dG*dG*dT*dG*dG*dA*dG*dA*kA*kG*k[5mC]) [Compound 1074149],58
4,1074821 (kG*kA*kA*dA*dA*dG*dT*dG*dT*dT*dA*dA*dG*k[5mC]*kA*k[5mC]; antisense) [Compound 1074821],18

# Same assay, conditions: Table 20; Yap1 mRNA, percent of untreated control; 3-10-3 cEt gapmers targeting SEQ ID NO.: 1 and 2
row,Substance,YAP1 (% UTC)
1,1075110 (antisense kG*kA*k[5mC]*dT*dA*dA*dA*dA*dA*d[5mC]*dA*dT*dT*kG*kT*kG) [Compound 1075110],120

# Same assay, conditions: Table 21; Yap1 mRNA, percent of untreated control; 3-10-3 cEt gapmers targeting SEQ ID NO.: 1 and 2
row,Substance,YAP1 (% UTC)
1,1074631 (antisense k[5mC]*kA*kT*dA*dG*d[5mC]*dA*dG*d[5mC]*dT*dT*dT*dT*kG*k[5mC]*k[5mC]) [Compound 1074631],9
2,1074951 (antisense k[5mC]*kA*kT*d[5mC]*dA*dG*dG*dT*dT*dA*dA*dG*dT*kG*kA*kT) [Compound 1074951],85

# Same assay, conditions: Table 22; Yap1 mRNA as percent of untreated control; 3-10-3 cEt gapmers; single dose
row,Substance,YAP1 (% UTC)
1,1075720 (k[5mC]*kT*kT*dT*dA*d[5mC]*dT*dA*d[5mC]*dA*dT*dA*dT*kA*kG*k[5mC]; antisense) [Compound 1075720],47
2,1074632 (antisense kT*k[5mC]*kA*dT*dA*dG*d[5mC]*dA*dG*d[5mC]*dT*dT*dT*kT*kG*k[5mC]) [Compound 1074632],12
3,1075208 (antisense kA*k[5mC]*kT*dG*dA*dA*d[5mC]*dA*d[5mC]*dA*dG*dG*d[5mC]*kT*kA*k[5mC]) [Compound 1075208],24
4,1074920 (antisense kA*k[5mC]*kT*d[5mC]*dA*dA*dG*dT*dT*dA*d[5mC]*dA*dT*k[5mC]*k[5mC]*k[5mC]) [Compound 1074920],68
5,1075240 (antisense kT*kA*kA*dA*d[5mC]*dG*dG*dT*dT*dT*dA*dT*dA*kT*kT*k[5mC]) [Compound 1075240],16

# Same assay, conditions: Table 23; Yap1 mRNA as percent of untreated control; 3-10-3 cEt gapmers; single dose
row,Substance,YAP1 (% UTC)
1,1076425 (k[5mC]*kG*kG*dG*dA*dA*dA*dA*dT*dT*d[5mC]*dT*dG*kG*kA*kG; antisense) [Compound 1076425],32
2,1076297 (kT*kT*kA*dT*dA*dA*dA*dG*dA*d[5mC]*d[5mC]*d[5mC]*dA*kA*kT*kG; antisense) [Compound 1076297],52
3,1075273 (antisense kA*kA*kA*dT*dT*dA*dT*dG*dG*dT*d[5mC]*dA*dG*kG*k[5mC]*kT) [Compound 1075273],18
4,1075657 (kT*kA*kA*dA*dA*dA*dA*d[5mC]*dG*dG*dT*dT*dT*kT*kT*k[5mC]; antisense) [Compound 1075657],84

# Same assay, conditions: Table 24; Yap1 mRNA as percent of untreated control; 3-10-3 cEt gapmers targeting SEQ ID NO.: 1, and 2
row,Substance,YAP1 (% UTC)
1,1075498 (k[5mC]*kA*kT*dT*dA*dT*dA*dT*dA*dA*dT*dG*d[5mC]*kA*kG*kG; antisense) [Compound 1075498],9

# Same assay, conditions: Table 25; Yap1 mRNA as percent of untreated control; 3-10-3 cEt gapmers targeting SEQ ID NO.: 1, and 2
row,Substance,YAP1 (% UTC)
1,1076555 (antisense kT*kG*kG*dG*dA*dA*dT*dA*dG*dT*dA*d[5mC]*dA*k[5mC]*kA*kG) [Compound 1076555],19
2,1075179 (antisense kA*kA*kT*dT*dA*dG*d[5mC]*d[5mC]*dG*dG*dT*d[5mC]*d[5mC]*k[5mC]*kA*kG) [Compound 1075179],107
3,1076331 (k[5mC]*kA*kT*dT*dA*dT*dT*d[5mC]*dA*dG*dT*dA*dG*kT*kT*kG; antisense) [Compound 1076331],71

# Same assay, conditions: Table 33; Yap1 mRNA, percent of untreated control; 3-10-3 cEt gapmers targeting SEQ ID NO.: 1, and 2
row,Substance,YAP1 (% UTC)
1,1075635 (antisense kA*kA*kT*dA*dA*dA*d[5mC]*dA*d[5mC]*d[5mC]*dT*d[5mC]*dG*k[5mC]*k[5mC]*kA) [compound 1075635],97
2,1074195 (antisense k[5mC]*k[5mC]*k[5mC]*dG*dG*dG*dT*d[5mC]*d[5mC]*dG*dG*dA*d[5mC]*kG*kG*k[5mC]) [compound 1074195],79
3,1075379 (antisense kT*kA*k[5mC]*d[5mC]*dA*dA*dA*dA*d[5mC]*dT*dA*d[5mC]*dA*kA*k[5mC]*k[5mC]) [compound 1075379],75
4,1075987 (kG*kA*kA*dG*dA*dA*dT*dA*dT*d[5mC]*dG*dA*dA*kA*kA*kG; antisense) [compound 1075987],13
5,1074483 (k[5mC]*kA*k[5mC]*dT*dA*dA*dT*dA*dT*dG*dG*dT*d[5mC]*kA*kT*kT; antisense) [compound 1074483],15

# Same assay, conditions: Yap1 mRNA as percent of untreated control; A-431 cells; 3-10-3 cEt gapmers targeting SEQ ID NO.: 1, and 2; Table 30
row,Substance,YAP1 (% UTC)
1,1076432 (k[5mC]*kA*kT*dT*dA*dG*dT*dA*dT*dT*d[5mC]*dA*d[5mC]*kT*kG*kT; antisense) [compound 1076432],18
2,1075984 (kT*kA*kT*d[5mC]*dG*dA*dA*dA*dA*dG*d[5mC]*dA*dA*kA*k[5mC]*kT; antisense) [compound 1075984],44
3,1075440 (antisense kA*kA*kA*dT*dT*dA*dT*dT*dA*dG*dT*dT*dG*kT*k[5mC]*kG) [compound 1075440],28
4,1074384 (kT*kT*k[5mC]*dA*dA*dG*dG*dT*dA*dG*dT*d[5mC]*dT*kG*kG*kG; antisense) [compound 1074384],35

# Same assay, conditions: Yap1 mRNA as percent of untreated control; A-431 cells; 3-10-3 cEt gapmers targeting SEQ ID NO.: 1, and 2; Table 31
row,Substance,YAP1 (% UTC)
1,1075761 (kG*kG*kA*dG*dA*dA*dA*dA*dA*d[5mC]*dT*dA*d[5mC]*kG*kG*kA; antisense) [compound 1075761],13
2,1074481 (kA*kA*kT*dA*dT*dG*dG*dT*d[5mC]*dA*dT*dT*dT*kG*k[5mC]*k[5mC]; antisense) [compound 1074481],14
3,1076273 (kA*kA*kA*d[5mC]*dA*dA*dA*dA*dT*dG*dG*d[5mC]*dG*kA*kA*kT; antisense) [compound 1076273],84
4,1074513 (kA*kG*kG*dA*dT*dA*d[5mC]*dA*dT*dT*d[5mC]*d[5mC]*dA*k[5mC]*kT*kA; antisense) [compound 1074513],47
